Reference: patent US6057119A, “Crystal structure and mutants of interleukin-1β converting enzyme” (Vertex Pharmaceuticals, Incorporated, priority 1995, dated 2000)

Target: T1, human interleukin-1β converting enzyme (ICE), wild type, autoprocessed p20/p10 from p30 precursor (residues Asn 120 to His 404 of p45), SEQ ID No: 1 (Homo sapiens, UniProt P29466)
T1 construct: the concomitant appearance of the p20 and p10 subunits, was monitored by SDS-PAGE, evidence that autocatalytic processing of the enzyme had occurred; made in house
T1 sequence (P29466 120-297): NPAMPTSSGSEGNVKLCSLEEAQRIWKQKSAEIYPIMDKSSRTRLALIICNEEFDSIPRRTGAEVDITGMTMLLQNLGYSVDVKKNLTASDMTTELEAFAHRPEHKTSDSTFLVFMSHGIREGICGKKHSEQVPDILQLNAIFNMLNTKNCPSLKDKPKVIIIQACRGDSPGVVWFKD
T1 sequence (P29466 317-404): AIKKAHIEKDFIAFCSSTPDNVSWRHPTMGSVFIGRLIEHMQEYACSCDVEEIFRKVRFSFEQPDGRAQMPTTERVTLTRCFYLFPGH
Assay: Inhibition of autoprocessed ICE by tetrapeptide aldehyde inhibitor (activity assayed by hydrolysis of Succinyl-Tyr-Val-Ala-Asp-p-nitroanilide)
Type: biochemical
Settings: 2× molar excess of inhibitor over enzyme
Experimental: The protein was concentrated to 3-5 mg/ml by ultrafiltration at 4° C., followed by incubation at room temperature. The disappearance of the p30 precursor, and the concomitant appearance of the p20 and p10 subunits, was monitored by SDS-PAGE, evidence that autocatalytic processing of the enzyme had occurred. ICE enzymatic activity was assayed by hydrolysis of a Succinyl-Tyr-Val-Ala-Asp-p-nitroanilide substrate at 37° C. and correlated closely with conversion to subunits.
The protein-inhibitor complex sample was concentrated and fractionated by size-exclusion chromatography, in final preparation for crystallization experiments.

CC(=O)N[C@@H](Cc1ccc(O)cc1)C(=O)N[C@H](C(=O)N[C@@H](C)C(=O)N[C@H](C=O)CC(=O)O)C(C)C [acetyl-Tyr-Vol-Ala-Asp-H]
inhibition of autoprocessed ICE: inhibited fully
